The values that follow come from patent US10011571B2, “Preparation method for aromatic heterocyclic compound used as selective JAK3 and/or JAK1 kinase inhibitor and application of aromatic heterocyclic compound” (SHENZHEN CHIPSCREEN BIOSCIENCES, LTD., priority 2014, dated 2018).

A value given as a limit tells only on which side of the number the result lay.

The test system of assay [1] is IL-2/JAK1 & 3/STAT5 (hPBC). Kind of assay: Intracellular activity assay, IL-2 induced STAT5 phosphorylation in hPBC. It counts as cell-based. The note with it: Homo sapiens; inhibition of STAT5 phosphorylation, activated hPBC, IL-2 10 ng/mL. From the text:
In this experiment, western blot (WB) and flow cytometry are used to evaluate the intracellular activities of the test compounds by comparing the relative levels of the signals of phosphorylated and non-phosphorylated STATs in 5 cell models, including U937, THP-1, CTLL-2, UT-7/EPO and activated human periphery blood cell (hPBC). The primary antibody and secondary antibody used in WB hybridization in this experiment are purchased from Cell Signaling Company (http://www.cellsignal.com). The fluorescence-labeled antibodies used in flow cytometry are purchased from eBiosciences Company (http://www.ebioscience.com).
Cytokine IL-2 dependent proliferation is formed after activation by co-stimulation of human periphery blood cell (hPBC) with CD3 antibody. The growth signal pathway is mediated by the heterodimer of JAK1/3 and induces the phosphorylation of downstream STAT5. The intracellular inhibitory activity of the compounds on JAK1/3 can be evaluated by detecting the change of the phosphorylation level of STAT5.
(1) Treatment by the compound: the experiment is carried out in a 6-well plate. […]
(2) Cell fixation and fluorescence labeling: the cells are fixed using paraformaldehyde (30 min), and subsequently treated for membrane permeability in chilled methanol (15 min). […]
(3) Detection by flow cytometry: the detection is carried out using Guava® easyCyte flow cytometer according to the instruction. The median fluorescent intensity (MFI) of a sample is detected using an appropriate cell population. On such a basis, the relative signal intensities are calculated for the phosphorylated STATs treated by the compounds at different concentrations by reference to the signal of the negative (with no factor stimulation) and the positive control (with both factor stimulation and solvent control) in the experiment, so that the IC50 of the compound for the inhibitory activity on STATs phosphorylation can be evaluated.

The target in the next assay is JAK2 (Homo sapiens (Human), UniProt O60674). Put plainly: Eurofins IC50Profiler radiometric kinase assay, JAK2. The note with it: 9 semilog concentrations. The assay is classed as biochemical. From the text:
A proportion of the compounds of the present invention are subjected to kinase profile screening (KinaseProfiler™)) and enzymatic inhibitory activity (IC50Profiler™)) assay by entrusting Eurofins company (http://www.eurofins.com). Besides the kinases in the JAK family, the kinases that have been screened for their activity also include most Group 3F and Group 4 kinases (ITK, BLK, TBK1, VEGFRs, ERBBs, etc.), and blood system related kinases (Zhang J. et al. 2009, Nat. Rev. Cancer., 9: 28-39). The concentration of the test compound for kinase profile screening is 1 μM, and a gradient of 9 semilog concentration gradients are used to determine IC50. Detection is carried out according to standard procedure of Eurofins Company. Briefly, according to the requirements of different kinase reactions, 0.2 μL test compound (50 μM, dissolved in dimethyl sulfoxide (DMSO)) is added to reaction buffer containing specific kinase (the buffer system containing 20 mM MOPS, 1 mM EDTA, 0.01% Brij-35, 5% Glycerol, 0.1% β-mercaptoethanol, 1 mg/mL BSA, or 50 mM TRIS, 0.1 mM EGTA, 0.1 mM Na3VO4, 0.1% β-mercaptoethanol, 1 mg/mL BSA, based on the type of kinase used). Subsequently, a kinase specific substrate at a final concentration of 50 μM (specific substrate used for specific kinase), 10 mM Mg Acetate and isotope-labeled γ-^33P ATP (radio-activity of about 500 cpm/pmol) are sequentially added to a total volume of 10 μL for the reaction system. After incubation at room temperature for 40 min, the reaction is terminated by adding 3% phosphoric acid solution. The mixture is then transferred to a filter-type low temperature spray dryer (P30 filtermat), and washed by 75 mM phosphoric acid solution for 3 times and by methanol once. After drying, radio-activity is detected. For specific procedure, see the standard procedure provided by Eurofins Company: http://www.eurofins.com/media/9724077/kinaseprofiler_assay_protocol_guide_eurofins_v64.pdf).

The subject of the next assay is CTLL-2 cells. Kind of assay: Cell growth activity assay (MTS), CTLL-2 cell model. The assay is classed as cell-based, mouse. The note with it: Mus musculus; for activity at 0.3 µM: CTLL-2, 300 nM, 24 h, read-out: CTLL-2 % growth rate @300 nM; for GI50: CTLL-2, 24 h. The gist of the method: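 Mouse IL-2-dependent T-cell line seeded ~20,000 cells/well, compounds added after 24 h at gradient concentrations (top 10 μM; CTLL-2 evaluation at 300 nM), cultured another 24 h. MTS/PMS added, 2 h at 37° C, absorbance 490 nm; inhibition vs DMSO control after negative-control background subtraction, GI50 calculated; triplicate.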

Sequence of JAK2 (O60674 whole entry, species assumed): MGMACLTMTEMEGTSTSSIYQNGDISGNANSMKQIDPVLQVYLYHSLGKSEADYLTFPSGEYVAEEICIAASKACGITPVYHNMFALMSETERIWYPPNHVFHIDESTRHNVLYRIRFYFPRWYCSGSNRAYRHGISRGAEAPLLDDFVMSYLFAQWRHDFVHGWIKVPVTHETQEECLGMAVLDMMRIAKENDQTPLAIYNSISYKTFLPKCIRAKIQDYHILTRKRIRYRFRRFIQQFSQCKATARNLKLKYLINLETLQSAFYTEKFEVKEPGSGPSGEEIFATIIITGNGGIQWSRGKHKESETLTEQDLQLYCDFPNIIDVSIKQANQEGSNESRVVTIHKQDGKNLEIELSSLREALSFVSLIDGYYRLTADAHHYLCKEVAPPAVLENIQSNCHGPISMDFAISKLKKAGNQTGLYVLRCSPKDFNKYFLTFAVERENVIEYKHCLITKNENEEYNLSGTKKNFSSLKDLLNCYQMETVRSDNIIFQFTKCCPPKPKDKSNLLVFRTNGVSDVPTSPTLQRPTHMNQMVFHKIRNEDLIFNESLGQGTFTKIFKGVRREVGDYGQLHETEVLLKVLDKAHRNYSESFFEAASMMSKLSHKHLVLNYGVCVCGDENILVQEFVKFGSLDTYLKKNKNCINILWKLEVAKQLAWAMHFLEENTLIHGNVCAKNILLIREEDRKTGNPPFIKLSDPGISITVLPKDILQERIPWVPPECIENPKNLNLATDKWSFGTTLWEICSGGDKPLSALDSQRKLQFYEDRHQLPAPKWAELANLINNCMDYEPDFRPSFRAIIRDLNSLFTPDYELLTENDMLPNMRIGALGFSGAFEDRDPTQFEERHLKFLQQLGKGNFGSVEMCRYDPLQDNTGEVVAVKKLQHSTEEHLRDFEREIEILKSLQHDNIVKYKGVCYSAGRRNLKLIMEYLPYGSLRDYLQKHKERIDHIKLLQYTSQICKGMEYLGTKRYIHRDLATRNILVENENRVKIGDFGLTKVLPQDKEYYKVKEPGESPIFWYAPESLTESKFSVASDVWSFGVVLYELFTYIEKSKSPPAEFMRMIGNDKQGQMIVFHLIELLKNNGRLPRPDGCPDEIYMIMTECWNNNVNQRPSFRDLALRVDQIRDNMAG

As to `C=CC(=O)N(C)c1cc(Nc2ncc(Cl)c(NCCCNC(=O)c3ccc(C#N)cc3)n2)ccc1F` [Example 7, N-(3-(5-chloro-2-(4-fluoro-3-(N-methylacrylamido)phenylamino)pyrimidinyl-4-amino)propyl)-4-cyano-benzamide], the midpoint of inhibition in assay [1], the IC50, lay at 160 nM. On JAK2, it took 1400 nM to reach half-maximal inhibition (IC50). Also, in the assay on CTLL-2 cells, the activity at 0.3 µM came to 10% and the GI50 – broadly, the concentration giving 50% growth inhibition – amounted to 116 nM.
As to `C=CC(=O)N(C)c1cc(Nc2ncc(Cl)c(NCCCNC(=O)c3ccc(C(F)(F)F)cc3)n2)ccc1F` [Example 22, N-(3-(5-chloro-2-(4-fluoro-3-(N-methylacrylamido)phenylamino)pyrimidinyl-4-amino)propyl)-4-trifluoromethylbenzamide], the half-inhibitory concentration (IC50) (as a rule, the concentration that gives 50% inhibition) in assay [1] is 200 nM. In addition, at JAK2, the IC50 was more than 10000 nM. Also, in the assay on CTLL-2 cells, the activity at 0.3 µM is 7% and the GI50 was determined as 249 nM.
Molecule `C=CC(=O)N(C)c1cc(Nc2ncc(Cl)c(NCCCNC(=O)c3ccc(F)cc3)n2)ccc1F` [Example 23, N-(3-(5-chloro-2-(4-fluoro-3-(N-methylacrylamido)phenylamino)pyrimidinyl-4-amino)propyl)-4-fluorobenzamide] returned a half-inhibitory concentration (IC50) in assay [1] of 240 nM. Half-maximal inhibition against JAK2 (IC50) required 1920 nM. Besides, in the assay with CTLL-2 cells, the activity at 0.3 µM was found to be 4% and the 50% growth inhibitory concentration (GI50) turned out to be 140 nM.
